Patent publication US20260207626A1, “SYNTHETIC TRITERPENOIDS AND COMPOSITIONS THEREOF IN WEIGHT MANAGEMENT, SKELETAL MUSCLE FUNCTION, AND APPETITE SUPPRESSION” (The Board of Regents of the University of Texas System, priority 2022, published 2026)
“And” between values parts separate entries of the source, which are not always exact repeats. Equal entries are not always repeated.

Columns and labels:
N171-82Q mice = settings: cited from earlier work
MCP-1 = test: LPS-induced MCP-1 ELISA in RAW264.7 macrophages (CDDO-EA batches); assay type: cell-based, mouse; settings: for MCP-1 production: LPS-induced, macrophages in cell culture; for MCP-1 level (ELISA), average: Table 4 (two values); for fold difference in the decrease of MCP-1 production: versus LPS alone
Experimental: Macrophages were pre-treated with 500 nM CDDO-EA #1 or 500 nM CDDO-EA #2, for 1 hour. The microphages were then stimulated with 100 ng/ml of lipopolysaccharide (LPS) for 6 hr. Supernatants were collected from each culture. An enzyme linked immunoassay (ELISA) was performed to detect levels of the pro-inflammatory protein, monocyte chemotactic protein-1 (MCP-1). The macrophages were also treated with LPS alone or with CDDO-EA alone. A control (no treatment) group was also included in the study.
The second batch of CDDO-EA was tested for its biological property of anti-inflammatory activity. As with the first batch of CDDO-EA, this was tested by using the mouse macrophage cell line RAW264.7. RAW264.7 macrophages were pre-treated with 500 nM CDDO-EA for 1 hour then stimulated with 100 ng/ml of lipopolysaccharide (LPS) for 6 hr. Supernatants were collected, and an enzyme linked immunoassay (ELISA) was performed to detect the pro-inflammatory protein, monocyte chemotactic protein-1 (MCP-1). The macrophages were also treated with LPS alone or with CDDO-EA alone. A control (no treatment) group was also included in the study. […] This suppression of MCP-1 production by the second batch CDDO-EA is similar to that observed for the first batch of CDDO-EA. (See FIG. 21).

GLUT4 [1] = test: GLUT4myc translocation by immunofluorescence in L6-GLUT4myc myotubes; assay type: cell-based, rat; settings: CDDO-EA 500 nM 1 h; insulin 100 nM 15 min
Experimental: Immunofluorescence and confocal microscopy were employed to visualize the localization of c-myc epitope-tagged GLUT4 in L6-GLUT4myc myotubes treated with CDDO-EA for 1 h. L6-GLUT4myc myotubes were also treated with insulin alone for 15 min as a positive control.
To examine the properties of CDDO-EA in regulating glucose metabolism in the skeletal muscle, the present study examined whether CDDO-EA induces translocation of GLUT4 to the cell surface (FIG. 16A). Immunofluorescence and confocal microscopy were used to visualize the localization of c-myc epitope-tagged GLUT4 in L6-GLUT4myc cells.
Immunofluorescence microscopy: L6-GLUT4myc myoblasts (4×10^4 cells/ml, 0.2 ml/well) were plated onto Nunc Lab-TekII 8-chamber slides (Thermo Fisher Scientific) and differentiated for 7 days. Myotubes were pre-treated with CDDO-EA 500 nM for 1 h followed by LPS 100 ng/ml (E. coli O111: B4, Sigma Aldrich) treatment for 1 h. After treatment, myotubes were fixed, permeabilized, and stained with anti-NF-κB p65 primary antibody (cat #sc-372, 1:100, Santa Cruz Biotechnology) and a goat anti-rabbit secondary antibody conjugated with Alexa Fluor® 488 (cat #A32731, 1:500, Invitrogen) as previously described. For GLUT4myc cell membrane staining, myotubes were pre-treated with CDDO-EA 500 nM for 1 h followed by LPS 100 ng/ml (E. coli 0111: B4, Sigma Aldrich) treatment for 1 h. Insulin 100 nM (cat #19278, Sigma Aldrich) treatment was for 15 min. After CDDO-EA, LPS, and insulin treatment, myotubes were fixed without permeabilization and stained with anti-c-myc primary antibody (cat #C3956, 1:100, Sigma Aldrich) and a goat anti-rabbit secondary antibody conjugated with Alexa Fluor® 488 (cat #A32731, 1:500, Invitrogen) as previously described.

GLUT4 [2] = test: Colorimetric assay of cell surface GLUT4 in L6GLUT4myc myotubes (preliminary data); assay type: cell-based, rat; settings: FIG. 30
Experimental: Is CDDO-EA-mediated GLUT4 translocation dependent on AMPK activation? The catalytic subunit alpha-1 (α1) of AMPK will be KD by siRNA. Cells will be treated with CDDO-EA (500 nM, 1 hour), insulin ([…] for 15 min), or insulin and CDDO-EA to determine if there is a synergistic effect on GLUT4 translocation. Also, cells will be treated with the AMPK activator, 5-aminoimidazole-4-carboxamide ribonucleoside (AICAR, 1 mM, 40 minutes), as a positive control. We will use a colorimetric assay to quantitatively measure the levels of cell surface GLUT4 in 3T3-L1 adipocytes and L6GLUT4myc myotubes^37. […] GLUT4 translocation will be detected via immunofluorescence. Subcellular protein fractionation will be conducted to detect GLUT4 in the sarcolemma for myotubes and plasma membrane for adipocytes and GLUT2 in the plasma membrane of hepatocytes via Western blotting. GLUT2 will be measured in hepatocytes because GLUT2 is the most abundant glucose transporter in hepatocytes^38. To measure glucose uptake, a non-radioactive, plate-based bioluminescent assay (Glucose Uptake-Glo, Promega) will be performed. Using Glucose Uptake-Glo, insulin induces glucose uptake in L6GLUT4my myotubes. Phosphorylation of AMPK at Thr^172 and phosphorylation of ACC at Ser^79 indicates activation of the AMPK pathway. Thus, phosphorylation of AMPK Thr^172 and ACC Ser^79 will be shown through Western blotting. […]

AMPK = settings: Saha et al.; cited from earlier work
IκB-α = settings: Saha et al.; liver homogenates, HFD mice; cited from earlier work
[3] = tested on: transforming growth factor-β (TGF-β)/Smad signaling; settings: Suh et al., 2003, Minns et al., 2004, Mix et al.; cited from earlier work
[4] = tested on: heme-oxygenase-1 and Nrf2/ARE signaling; settings: Liby et al., 2005; cited from earlier work
[5] = Shin et al.; oral gavage 30 μmol/kg three times a week, HFD 82 days; interpretation questioned by the applicant; cited from earlier work
[6] = RAW264.7, 500 nM CDDO-EA batch 1 hour then 100 ng/ml LPS 6 hr
[7] = RAW264.7, 500 nM CDDO-EA batch alone, no LPS
[8] = 500 nM CDDO-EA batch 1 hour then 100 ng/ml LPS 6 hr
[9] = 500 nM CDDO-EA batch alone, no LPS
[10] = Table 5, 500 nM CDDO-EA batch 1 hour then 100 ng/ml LPS 6 hr
[11] = Table 5, 500 nM CDDO-EA batch alone, no LPS

Molecule	MCP-1 level (ELISA), individual values (MCP-1; [6])	MCP-1 level (ELISA), individual values (MCP-1; [7])	MCP-1 level (ELISA), average (MCP-1; [8])	MCP-1 level (ELISA), average (MCP-1; [9])	MCP-1 level (ELISA), mean of four values (MCP-1; [10])	MCP-1 level (ELISA), mean of four values (MCP-1; [11])	modulation of TGF-β/Smad signaling [3]	induction of heme-oxygenase-1 and Nrf2/ARE signaling [4]	other results
CC1(C)CC[C@]2(C(=O)NCC(F)(F)F)CC[C@]3(C)[C@H](C(=O)C=C4[C@@]5(C)C=C(C#N)C(=O)C(C)(C)[C@@H]5CC[C@]43C)[C@@H]2C1 [CDDO-TFEA]									muscle strength and balance, survival (N171-82Q mice; N171-82Q mice): improved muscle strength and balance and increased survival; accumulation in the skeletal muscle (N171-82Q mice; Stack et al. (2010)): accumulated in the skeletal muscle; oxidative stress in skeletal muscle (N171-82Q mice; Stack et al. (2010)): oxidative stress in skeletal muscle was reduced
CCNC(=O)[C@]12CCC(C)(C)C[C@H]1C1C(=O)C=C3[C@@]4(C)C=C(C#N)C(=O)C(C)(C)[C@@H]4CC[C@@]3(C)[C@]1(C)CC2 (stereo partly drawn) [CDDO-EA #2, (4aS,6aR,6bS,8aR,12aS,14bS)-11-cyano-N-ethyl-2,2,6a,6b,9,9,12a-heptamethyl-10,14-dioxo-1,3,4,5,6,6a,6b, 7,8,8a,9,10,12a, 14,14a, 14b-hexadecahydropicene-4a (2H)-carboxamide]	23503 and 25793 and 11890 and 14316	481 and 497 and 314 and 587	24648	489	18875	470			MCP-1 production (MCP-1; listed as Batch #2 CDDO-EA): 24600 pg/mL; LPS-induced production of MCP-1 (MCP-1; RAW264.7, 500 nM 1 hour then 100 ng/ml LPS 6 hr): blocked the LPS-induced production of MCP-1; fold difference in the decrease of MCP-1 production (MCP-1; listed as Batch #2 CDDO-EA): ~4.6 fold
Insulin: positive control for GLUT4myc translocation, 100 nM for 15 min [reference compound]									GLUT4myc translocation to the cell surface (GLUT4 [1]): induced GLUT4myc translocation into the cell membrane; GLUT4 translocation to the cell surface (colorimetry assay) (GLUT4 [2]): induce GLUT4 translocation to the cell surface
COC(=O)[C@]12CCC(C)(C)C[C@H]1C1C(=O)C=C3[C@@]4(C)C=C(C#N)C(=O)C(C)(C)[C@@H]4CC[C@@]3(C)[C@]1(C)CC2 (stereo partly drawn) [CDDO-Me, methyl (4aS,6aR,6bS,8aR,12aS,14bS)-11-cyano-2,2,6a,6b,9,9,12a-heptamethyl-10,14-dioxo-1,3,4,5,6,6a,6b,7,8,8a,9,10,12a, 14,14a, 14b-hexadecahydropicene-4a (2H)-carboxylate]							ability to modulate transforming growth factor-β (TGF-β)/Smad signaling	potent inducers of heme-oxygenase-1 and Nrf2/ARE signaling	AMPK signaling (AMPK): activated AMPK signaling in isolated mouse hepatocytes and C2C12 muscle cells; phosphorylation of IκB-α (IκB-α): increase in phosphorylation of IκB-α
CC1(C)CC[C@]2(C(=O)n3ccnc3)CC[C@]3(C)[C@H](C(=O)C=C4[C@@]5(C)C=C(C#N)C(=O)C(C)(C)[C@@H]5CC[C@]43C)[C@@H]2C1 [CDDO-Im]							ability to modulate transforming growth factor-β (TGF-β)/Smad signaling	potent inducers of heme-oxygenase-1 and Nrf2/ARE signaling	energy expenditure (EE) [5]: increases energy expenditure (EE) in mice fed a HFD
CCNC(=O)[C@]12CCC(C)(C)C[C@H]1C1C(=O)C=C3[C@@]4(C)C=C(C#N)C(=O)C(C)(C)[C@@H]4CC[C@@]3(C)[C@]1(C)CC2 (stereo partly drawn) [CDDO-EA #1, (4aS,6aR,6bS,8aR,12aS,14bS)-11-cyano-N-ethyl-2,2,6a,6b,9,9,12a-heptamethyl-10,14-dioxo-1,3,4,5,6,6a,6b,7,8,8a,9,10,12a, 14,14a, 14b-hexadecahydropicene-4a (2H)-carboxamide]	30687 and 31996 and 20309 and 17055	717 and 655 and 740 and 870	31341	686	25012	746			MCP-1 production (MCP-1; listed as Batch #1 CDDO-EA): 31300 pg/mL; fold difference in the decrease of MCP-1 production (MCP-1; listed as Batch #1 CDDO-EA): about 3.6 fold
